System: UTI89
Experiment: Mouse model of acute UTI, bladder bacterial CFU after UTI89 infection
Type: in vivo, Escherichia coli
Conditions: mice, 25 mg/kg oral in 10% cyclodextrin 30 min prior to infecting with UTI89; 6 hpi
Experimental: The efficacy of in vivo mannoside treatment was evaluated after orally dosing animals with 50 mg/kg of mannosides ZFH-4269 (FIG. 1A), ZFH-5254 (FIG. 1B) and ZFH-5240 (FIG. 1C) or DMSO or PBS 30 min prior to infecting with UTI89. At 6 hours post-infection (hpi) the bladders were removed and total bacterial CFUs were quantitated. […] Next, analogs of 254 were evaluated in the same mouse model of urinary tract infection. Animals were orally dosed with 25 mg/kg of mannosides ZFH-4269 (FIG. 2A), 1CJ68 (FIG. 2B) and 1CJ70 (FIG. 2C) in 10% cyclodextrin or 10% cyclodextrin 30 min prior to infecting with UT189.
The efficacy of in vivo mannoside treatment was evaluated after orally dosing animals with 25 mg/kg of mannosides ZFH269, Prodrug FIM-4269, ZFH-5254, and ZFH-5240 in 10% cyclodextrin or 10% cyclodextrin 30 min prior to infecting with UTI89. At 6 hours post-infection (hpi) the bladders were removed and total bacterial CFUs were quantitated. […] Next, several different prodrugs were evaluated in the same mouse model of urinary tract infection. Animals were orally dosed with 25 mg/kg of mannosides ZFH-4269, prodrug FIM-1233 (FIG. 8B), prodrug FIM-6123 (FIG. 8C) and prodrug 269 in 10% cyclodextrin or 10% cyclodextrin 30 min prior to infecting with UT189.
The FimH-mannose interaction was further investigated in an effort to develop potential ligand-based antagonists of UTIs. […] The non-reducing Man4 anchors into the mannose-binding pocket while the GlcNAc folds over Thr51 allowing specific interactions with a hydrophobic tyrosine gate. Heptyl mannoside mimics the GlcNAc tail of oligomannose-3 and extends it further to increase interactions outside the binding pocket resulting in high affinity binding (Kd=5 nM). Based on the high affinity of heptyl mannose for FimH, the ability of heptyl mannose to reduce bacterial infection in our mouse model of UTI was tested. First, biofilm formation as a surrogate for IBCs formed in the bladder was evaluated. […] Thus, UPEC strain UTI89 was incubated with heptyl mannose prior to inoculation into the bladders of mice.
Bacteria were grown under type 1 pili-inducing conditions (2×24 h at 37° C. statically in LB). The bacteria were harvested and resuspended to an OD600 of 0.5 in PBS. Eight-week-old C3H/HeN (Harlan) female mice were anesthetized by inhalation of isoflurane and infected via transurethral catheterization with […] of the bacterial suspension, resulting in 1-2×10^7 inoculum. At 6 hpi, mice were sacrificed by cervical dislocation under anesthesia and the bladders were immediately harvested and processed as described below. All animal studies using mice were approved by the Animal Studies Committee of Washington University (Animal Protocol Number 20100002).
Mannoside ZFH-2056 was administered either IP (5 mg/kg) or orally (100 mg/kg) 30 min prior to inoculation with UTI89. To enumerate the bacteria present, mice were sacrificed at 6 hpi and bladders were aseptically removed and homogenized in 1 ml PBS, serially diluted and plated onto LB agar plates. CFU was enumerated after 16 h of growth at 37° C.

SMILES | total bacterial CFUs in the bladder
CNC(=O)c1cccc(-c2ccc(OC3OC(COP(=O)(O)O)C(O)C(O)C3O)c(C)c2)c1 [Example 21, [(2S,3S,4S,5R,6R)-3,4,5-trihydroxy-6-[2-methyl-4-[3-(methylcarbamoyl)phenyl]phenoxy]tetrahydropyan-2-yl]methyl dihydrogen phosphate] | drop in bacterial counts
CNC(=O)c1cccc(-c2ccc(O[C@H]3O[C@@H](COC(=O)CN(C)C)[C@@H](O)[C@H](O)[C@H]3O)c(C)c2)c1 [Example 22, [(2S,3S,4S,5R,6R)-3,4,5-trihydroxy-6-[2-methyl-4-[3-(methylcarbamoyl)phenyl]phenoxy]tetrahydropyran-2-yl]methyl 2-dimethylaminoacetate] | drop in bacterial counts

Target: T1, FimH (Escherichia coli, UniProt P08191)
T1 construct: endogenous in cells; host or cells: type 1 piliated uropathogenic E. coli (UPEC)
T1 sequence (P08191 22-300): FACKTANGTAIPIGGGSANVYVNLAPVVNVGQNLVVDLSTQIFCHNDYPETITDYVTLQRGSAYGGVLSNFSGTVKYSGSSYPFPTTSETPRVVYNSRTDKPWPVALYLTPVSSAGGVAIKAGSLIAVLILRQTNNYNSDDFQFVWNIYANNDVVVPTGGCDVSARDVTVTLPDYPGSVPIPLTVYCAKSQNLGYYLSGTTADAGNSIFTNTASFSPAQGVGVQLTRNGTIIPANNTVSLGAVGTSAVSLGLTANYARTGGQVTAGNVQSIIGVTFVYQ
Experiment: Hemagglutination inhibition (HAI) assay, guinea pig red blood cells
Type: cell-based, E. coli
Conditions: concentration inhibiting >90% hemagglutination of guinea pig red blood cells
Experimental: FIG. 15 depicts the hemagglutination assay (HA) used to assess the compounds' ability to block FimH mediated binding. The HAI titer quantitatively measure the effect of inhibitors on blocking the FimH-mediated hemagglutination (HA) of guinea pig red blood cell infected with E. coli.
In some embodiments, activity of the compound is measured using hemmagglutination titer of guinea pig red blood cells. Hemagglutination of guinea pig red blood cells by type1 piliated UPEC is dependent upon FimH mannose binding ability and serial dilutions allow a quantitative analysis.
Hemagglutination assays for mannose-sensitive agglutination of guinea pig red blood cells were performed as previously described.

SMILES | HAI Titer EC>90 [µM]
CNC(=O)c1cccc(-c2ccc([C@H](O)C3OC(CO)C(O)C(O)C3O)c(C)c2)c1 (single isomer, unassigned) [Example 18B] | 6.000
COC(=O)c1cccc(-c2ccc(O[C@H]3O[C@@H](CO)[C@@H](O)[C@H](O)[C@H]3O)c(C)c2)c1 [Example 1, methyl 3-[3-methyl-4-[(2R,3R,4S,5S,6S)-3,4,5-trihydroxy-6-(hydroxymethyl)tetrahydropyran-2-yl]oxy-phenyl]benzoate] | 0.12
Cc1cc(-c2cccc(C(=O)Nc3ccncc3)c2)ccc1O[C@H]1O[C@@H](CO)[C@@H](O)[C@H](O)[C@H]1O [Example 3, 3-[3-methyl-4-[(2R,3R,4S,5S,6S)-3,4,5-trihydroxy-6-(hydroxymethyl)tetrahydropyran-2-yl]oxy-phenyl]-N-(4-pyridyl)benzamide] | 0.064
Cc1cc(-c2cccc(C(=O)Nc3cccnc3)c2)ccc1O[C@H]1O[C@@H](CO)[C@@H](O)[C@H](O)[C@H]1O [Example 4, 3-[3-methyl-4-[(2R,3R,4S,5S,6S)-3,4,5-trihydroxy-6-(hydroxymethyl)tetrahydropyran-2-yl]oxy-phenyl]-N-(3-pyridyl)benzamide] | 0.032
Cc1nnc(-c2ccc(-c3ccc(O[C@H]4O[C@@H](CO)[C@@H](O)[C@H](O)[C@H]4O)c(C)c3)cc2)o1 [Example 5, (2S,3S,4S,5R,6R)-2-(hydroxymethyl)-6-[2-methyl-4-[4-(5-methyl-1,3,4-oxadiazol-2-yl)phenyl]phenoxy]tetrahydropyran-3,4,5-triol] | 0.062
Cc1nnc(-c2cccc(-c3ccc(O[C@H]4O[C@@H](CO)[C@@H](O)[C@H](O)[C@H]4O)c(C)c3)c2)o1 [Example 6, (2S,3S,4S,5R,6R)-2-(hydroxymethyl)-6-[2-methyl-4-[3-(5-methyl-1,3,4-oxadiazol-2-yl)phenyl]phenoxy]tetrahydropyran-3,4,5-triol] | 0.062
COC(=O)Cn1ccc2ccc(-c3ccc(O[C@H]4O[C@@H](CO)[C@@H](O)[C@H](O)[C@H]4O)c(C)c3)cc2c1=O [Example 8, methyl 2-[7-[3-methyl-4-[(2R,3R,4S,5S,6S)-3,4,5-trihydroxy-6(hydroxymethyl)tetrahydropyran-2-yl]oxy-phenyl]-1-oxo-2-isoquinolyl]acetate] | 0.006
Cc1cc(-c2ccc3ccn(CC(=O)O)c(=O)c3c2)ccc1O[C@H]1O[C@@H](CO)[C@@H](O)[C@H](O)[C@H]1O [Example 9, 2-[7-[3-methyl-4-[(2R,3R,4S,5S,6S)-3,4,5-trihydroxy-6-(hydroxymethyl)tetrahydropyran-2-yl]oxy-phenyl]-1-oxo-2-isoquinolyl]acetic acid] | 0.016
Cc1cc(-c2ccc3ccn(CC(=O)Nc4cccnc4)c(=O)c3c2)ccc1O[C@H]1O[C@@H](CO)[C@@H](O)[C@H](O)[C@H]1O [Example 10, 2-[7-[3-methyl-4-[(2R,3R,4S,5S,6S)-3,4,5-trihydroxy-6-(hydroxymethyl)tetrahydropyran-2-yl]oxy-phenyl]-1-oxo-2-isoquinolyl]-N-(3-pyridyl)acetamide] | 0.001
Cc1cc(-c2ccc3ccn(CC(=O)Nc4ccncc4)c(=O)c3c2)ccc1O[C@H]1O[C@@H](CO)[C@@H](O)[C@H](O)[C@H]1O [Example 11, 2-[7-[3-methyl-4-[(2R,3R,4S,5S,6S)-3,4,5-trihydroxy-6-(hydroxymethyl)tetrahydropyran-2-yl]oxy-phenyl]-1-oxo-2-isoquinolyl]-N-(4-pyridyl)acetamide] | 0.001
Cc1cc(-c2ccc3ccn(CC(=O)N4CCN(C)CC4)c(=O)c3c2)ccc1O[C@H]1O[C@@H](CO)[C@@H](O)[C@H](O)[C@H]1O [Example 12, 2-[2-(4-methylpiperazin-1-yl)-2-oxo-ethyl]-7-[3-methyl-4-[(2R,3R,4S,5S,6S)-3,4,5-trihydroxy-6-(hydroxymethyl)tetrahydropyran-2-yl]oxy-phenyl]isoquinolin-1-one] | 0.008
Cc1cc(-c2ccc3ccn(CC(=O)NCCN)c(=O)c3c2)ccc1OC1OC(CO)C(O)C(O)C1O [Example 13, N-(2-aminoethyl)-2-[7-[3-methyl-4-[(2R,3R,4S,5S,6S)-3,4,5-trihydroy-6-(hydroxymethyl)tetrahydropyran-2-yl]oxy-phenyl]-1-oxo-2-isoquinolyl]acetamide] | 0.016
Cc1cc(-c2ccc3ccn(CCN(C)C)c(=O)c3c2)ccc1O[C@H]1O[C@@H](CO)[C@@H](O)[C@H](O)[C@H]1O [Example 14, 2-(2-dimethylaminoethyl)-7-[3-methyl-4-[(2R,3R,4S,5S,6S)-3,4,5-trihydroxy-6-(hydroxymethyl)tetrahydropyran-2-yl]oxy-phenyl]isoquinolin-1-one] | 0.012
Cc1cc(-c2ccc3ccn(Cc4ccncc4)c(=O)c3c2)ccc1O[C@H]1O[C@@H](CO)[C@@H](O)[C@H](O)[C@H]1O [Example 15, 7-[3-methyl-4-[(2R,3R,4S,5S,6S)-3,4,5-trihydroxy-6-(hydroxymethyl)tetrahydropyran-2-yl]oxy-phenyl]-2-(4-pyridylmethyl)isoquinolin-1-one] | 0.004
Cc1cc(-c2ccc3ccn(Cc4cccnc4)c(=O)c3c2)ccc1O[C@H]1O[C@@H](CO)[C@@H](O)[C@H](O)[C@H]1O [Example 16, 7-[3-methyl-4-[(2R,3R,4S,5S,6S)-3,4,5-trihydroxy-6-(hydroxymethyl)tetrahydropyran-2-yl]oxy-phenyl]-2-(3-pyridylmethyl)isoquinolin-1-one] | 0.008
CNC(=O)c1sc(-c2ccc(O[C@H]3O[C@@H](CO)[C@@H](O)[C@H](O)[C@H]3O)c(C)c2)cc1NC(N)=O [Example 17, N-methyl-5-[3-methyl-4-[(2R,3R,4S,5S,6S)-3,4,5-trihydroxy-6-(hydroxymethyl)tetrahydropyran-2-yl]oxy-phenyl]-3-ureido-thiophene-2-carboxamide] | 0.024
CNC(=O)c1cccc(-c2ccc(C[C@H]3O[C@@H](CO)[C@@H](O)[C@H](O)[C@H]3O)c(C)c2)c1 [Example 19, N-methyl-3-[3-methyl-4-[[(2R,3R,4R,5S,6S)-3,4,5-trihydroxy-6-(hydroxymethyl)tetrahydropyran-2-yl]methyl]phenyl]benzamide] | 2.000

Source: patent US9957289B2, “Compounds and methods for treating bacterial infections” (Washington University, priority 2013, dated 2018)
